From ChEMBL document CHEMBL3430912, “GSK Tres Cantos Anti-Kinetoplastid Screening (TCAKS) Data”

Tests used:
[1] = GSK_TCAKS: pIC50 HepG2 human cell line viability assay using luminiscence. […] Seeding density was checked to ensure that new mono-layers were not more than 50% confluent at the time of harvesting. Cell suspension was added to 500 mL of the same medium at a final density of 1.2 * 10^5 cells/mL. This cell suspension was dispensed (25 uL, 3000 cells per well) into 384-well clear-bottom plates using a Multidrop Combi dispenser. Prior to addition of the cell suspension, the screening compounds (250 nL) were pre-dispensed into the plates with an Echo liquid handler. Plates were incubated for 48 h at 37C, 5% CO2. After incubation, plates equilibrated at room temperature for 30 min before proceeding to develop the luminescent signal. The signal developer, CellTiter-Glo Reagent, was allowed to equilibrate at room temperature for 30 min and added to the plates (25uL per well) using a Multidrop Combi dispenser. Plates were left for 10 min at room temperature for stabilization and then read using a ViewLux.; format: toxicity, cell-based
Leishmania donovani [2] = test: GSK_TCAKS: pIC50 Leishmania donovani Imaging: Infected Macrophages. Assay plates (384-well) were prepared by adding 250nL of compound to each well. For single shot assay, the final compound concentration was 5 uM. […] Automated image analysis was performed with a script developed on Acapella High Content Imaging and Analysis Software (PerkinElmer). Output: Percent of infected macrophage cells were reported for each well.; format: functional, organism-based, Homo sapiens; settings: THP-1
Trypanosoma cruzi [3] = test: GSK_TCAKS: pIC50 Trypanosoma cruzi viability assay using beta-GAL activity. This assay was run at single shot at 5uM compound concentration per well. The biological reagents consisted of NIH-3T3 host cells and trypomastigotes parasitic cells; both cell types were set to a 3.3 * 10^5 cells/mL dilution in assay DMEM by means of a CASY cell counter device using a 60um capillary. 6 uL of the mixture were dispensed per well (about 1 * 10^3 host-cells and 1 * 10^3 parasites) with a Multidrop Combi dispenser. […] In all wells, the percentage of DMSO never exceeded 0.5%. Plates incubated for four days at 37C, 5% CO2. The substrate used for the assay fluorescence intensity (FLINT) readout was resorufin-beta-D-galactopiranoside (Sigma-Aldrich) at 5uM per well. It was diluted in PBS supplemented with the soft detergent Igepal (Fluka).; format: functional, organism-based, Mus musculus; settings: Tulahuen, NIH3T3
[4] = system: Trypanosoma brucei brucei; test: GSK_TCAKS: pIC50 Trypanosoma brucei viability assay using fluorescence intensity. Assay plates (1536-well) were prepared by dispensing 25nL of compound solution per well using an Echo acoustic dispenser (Labcyte).; format: functional, organism-based; settings: Lister 427, 2 h
Leishmania donovani [5] = test: GSK_TCAKS: pIC50 Leishmania donovani viability assay using fluorescence intensity. Assay plates (1536-well) were prepared by adding 30nL per well of compound. For single shot assay, the final compound concentration was 5uM. […] Briefly, eGFP LdBOB axenic amastigotes were harvested, fixed and counted in a CASY cell counter (Roche-Applied Science). A final concentration of 1.5 * 10^5 cells per well were prepared in amastigote media containing 500 U/mL penicillin/streptomycin (Invitrogen) and 6uL was dispensed to each experimental well using a Multidrop Combi dispenser (Thermo Scientific). 6uL of assay media was dispensed to control columns used as reference for 100% compound response. Following incubation for 72 h at 37C, 5% CO2, 2 uL of resazurin was added to each well at a final concentration of 0.5 mM in phosphate buffered saline (PBS) with IGEPAL (Sigma-Aldrich), 0.05% (v/v).; format: functional, organism-based
Trypanosoma cruzi [6] = test: (§1) GSK_TCAKS: pIC50 Trypanosoma cruzi Imaging: Amastigotes/Cell. […] Cells were then washed once with PBS before infection. T. cruzi trypomastigotes, collected at days 5 to 8 after infection from LLC-MK2 parasite infected cultures, were allowed to swim out for 4h at 37C from a centrifuged pellet (2,500 rpm/10 min/room temperature). Trypomastigotes were then collected and counted in a CASY Cell Counter. Trypomastigotes, in supplemented DMEM, were added to H9c2 cultures in a multiplicity of infection of 1 and incubated for 18 h. Cells were washed once with PBS before incubation of the infected H9c2 monolayer with trypsin (Life-Technologies) to detach cells from the flask. Cells were counted in a CASY Cell Counter using a 150 um capillary and their density set at 5 * 10^4 cells per mL in supplemented assay DMEM. Infected H9c2 were dispensed into 384-well poly-lysine coated assay plates at 50uL per well using a Multidrop Combi dispenser. After seeding them, the plates were incubated at 37C, 5% CO2 for 72h. Cultures were then fixed and stained by addition of 50 uL of a solution containing 8% formaldehyde and 4 uM DRAQ5 DNA dye (BioStatus, UK) per well. […] Five images were collected per well for reliable statistical analysis. Automated image analysis was performed with a script developed on Acapella High Content Imaging and Analysis Software (PerkinElmer). Output: number of amastigotes per cell as infection level measurement.; format: functional, organism-based, Rattus norvegicus; settings: H9c2, 4 h
Trypanosoma cruzi [7] = test: as §1, with “H2C9” for “Trypanosoma cruzi”, “H9c2 Host Cardiomyocytes.” for “Amastigotes/Cell.”, “Number” for “number”, “H9c2 Host Cardiomyocytes nuclei to determine drug-related cytotoxicity.” for “amastigotes per cell as infection level measurement.”; format: functional, organism-based, Rattus norvegicus; settings: H9c2, 4 h
Leishmania donovani [8] = test: GSK_TCAKS: pIC50 Leishmania donovani Imaging: THP-1 Host Macrophages. Assay plates (384-well) were prepared by adding 250nL of compound to each well. For single shot assay, the final compound concentration was 5 uM. […] Automated image analysis was performed with a script developed on Acapella High Content Imaging and Analysis Software (PerkinElmer). Output: THP-1 cell count were reported for each well.; format: functional, organism-based, Homo sapiens
[9] = biological target: Sterol 14-alpha demethylase (Trypanosoma cruzi (strain CL Brener), UniProt Q7Z1V1); test: GSK_TCAKS: pIC50 CYP51 from Trypanosoma cruzi.; format: functional
Leishmania donovani [10] = test: GSK_TCAKS: pIC50 Leishmania donovani Imaging: Amastigotes/Macrophages. Assay plates (384-well) were prepared by adding 250nL of compound to each well. For single shot assay, the final compound concentration was 5 uM. […] Automated image analysis was performed with a script developed on Acapella High Content Imaging and Analysis Software (PerkinElmer). Output: Average number of amastigotes per macrophage cell were reported for each well.; format: functional, organism-based, Homo sapiens; settings: THP-1
[11] = system: Trypanosoma brucei brucei; test: GSK_TCAKS: pIC50 Trypanosoma brucei viability assay using luminiscence. Assay plates (1536-well) were prepared. T. brucei cultures were harvested and counted in a CASY cell counter. A parasite suspension was prepared at a final concentration of 5 * 10^4 cells/mL in complete HMI9 medium and 6uL was dispensed to all wells containing compounds using a Multidrop Combi dispenser. 6uL of HMI9 media with 0.4% DMSO were dispensed to control columns. Plates were incubated for 24 h at 37C, 5% CO2 then tempered for 10 min at room temperature. ATP content was quantified by adding 4 uL of CellTiter-Glo Reagent (Promega) according to the manufacturer's instructions. Luminescence was measured using a ViewLux.; format: functional, organism-based; settings: Lister 427, CASY
Trypanosoma cruzi [12] = test: GSK_TCAKS: pIC50 Trypanosoma cruzi Imaging: Infected Cells. […] Cells were then washed once with PBS before infection. T. cruzi trypomastigotes, collected at days 5 to 8 after infection from LLC-MK2 parasite infected cultures, were allowed to swim out for 4h at 37C from a centrifuged pellet (2,500 rpm/10 min/room temperature). Trypomastigotes were then collected and counted in a CASY Cell Counter. Trypomastigotes, in supplemented DMEM, were added to H9c2 cultures in a multiplicity of infection of 1 and incubated for 18 h. Cells were washed once with PBS before incubation of the infected H9c2 monolayer with trypsin (Life-Technologies) to detach cells from the flask. Cells were counted in a CASY Cell Counter using a 150 um capillary and their density set at 5 * 10^4 cells per mL in supplemented assay DMEM. Infected H9c2 were dispensed into 384-well poly-lysine coated assay plates at 50uL per well using a Multidrop Combi dispenser. After seeding them, the plates were incubated at 37C, 5% CO2 for 72h. Cultures were then fixed and stained by addition of 50 uL of a solution containing 8% formaldehyde and 4 uM DRAQ5 DNA dye (BioStatus, UK) per well. […] Five images were collected per well for reliable statistical analysis. Automated image analysis was performed with a script developed on Acapella High Content Imaging and Analysis Software (PerkinElmer). Output: percentage of infected cells per well as a second infection marker.; format: functional, organism-based, Rattus norvegicus; settings: H9c2, 4 h

Chain of Sterol 14-alpha demethylase (Q7Z1V1 whole entry): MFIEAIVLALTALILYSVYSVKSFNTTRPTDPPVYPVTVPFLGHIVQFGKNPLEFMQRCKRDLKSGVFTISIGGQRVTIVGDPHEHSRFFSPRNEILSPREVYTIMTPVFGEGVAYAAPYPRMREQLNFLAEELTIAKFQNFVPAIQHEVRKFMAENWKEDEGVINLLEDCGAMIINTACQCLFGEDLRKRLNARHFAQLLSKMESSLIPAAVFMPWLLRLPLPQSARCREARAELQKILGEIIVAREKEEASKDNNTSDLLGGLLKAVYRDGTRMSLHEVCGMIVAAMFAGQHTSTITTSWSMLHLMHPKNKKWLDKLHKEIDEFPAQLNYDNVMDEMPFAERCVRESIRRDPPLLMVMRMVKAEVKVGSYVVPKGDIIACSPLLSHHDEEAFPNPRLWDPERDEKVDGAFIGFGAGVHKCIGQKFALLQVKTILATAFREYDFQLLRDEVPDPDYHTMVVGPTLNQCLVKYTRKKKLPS

SMILES | IC50 at 48 h [1] [nM] | IC50 (Leishmania donovani [2]) [nM] | IC50 (Trypanosoma cruzi [3]) [nM] | IC50 [4] [nM] | IC50 (Leishmania donovani [5]) [nM] | IC50 (Trypanosoma cruzi [6]) [nM] | IC50 (Trypanosoma cruzi [7]) [nM] | IC50 (Leishmania donovani [8]) [nM] | IC50 [9] [nM] | IC50 (Leishmania donovani [10]) [nM] | IC50 [11] [nM] | IC50 (Trypanosoma cruzi [12]) [nM]
CC(C)CC(=O)NC(c1cccs1)c1ccc2cccnc2c1O (configuration not stated) | > 100000 | 7940 | 1580 | 631 | 6310 | 794 | 2000 | 1580 | 50100 | 3160 | 631 | 1260
CN(CC1CCCO1)S(=O)(=O)c1ccc(C(=O)Nc2nc(-c3ccccn3)cs2)cc1 (configuration not stated) | 63100 | 6310 | 1580 | 501 | 1260 | 1260 | 20000 | 7940 | 7940 | 3160 | 631 | 2000
O=C(COc1ccccc1)Nc1ccccc1C(=O)Nc1nccs1 | > 100000 | > 50100 | > 50100 | 398 | > 50100 | > 50100 | > 50100 | 7940 | > 100000 | > 50100 | 631 | > 50100
CCOc1ccccc1C(=O)Nc1nnc(-c2ccc3c(c2)OCO3)s1 | > 100000 | 501 | 631 | > 39800 | 794 | 63.1 | > 50100 | > 50100 | > 100000 | 316 | > 39800 | 79.4
COc1ccc(-c2csc(NC(=O)c3ccc([N+](=O)[O-])s3)n2)cc1OC | 10000 | 1260 | 100 | 126 | 1000 | 79.4 | 6310 | 31600 | > 100000 | 1260 | 631 | 100
O=C(CN1CCN(S(=O)(=O)c2cccc([N+](=O)[O-])c2)CC1)Nc1ccc(Oc2ccccc2)cc1 | > 100000 | 7940 | 2510 | 20000 | 3980 | 1260 | > 50100 | > 50100 | 2510 | 2000 | 15800 | 2510
COc1ccc2ncc(F)c(CCN3CC[C@@H](NC(=O)c4cc5c(s4)CCC5)[C@@H](O)C3)c2n1 | 50100 | 6310 | 158 | 100 | 1000 | 50.1 | 126 | 25100 | 1260 | 1260 | 316 | 126
CC(=O)NC1(c2ccccc2)CCN(CC(=O)Nc2ccccc2-c2ccccc2)CC1 | > 100000 | > 50100 | 1260 | 631 | 20000 | 1580 | > 50100 | > 50100 | 50100 | 39800 | 501 | 7940
O=C1COC(c2ccccc2)(c2ccccc2)CN1C1CCN(Cc2ccc(-n3ccnc3)cc2)CC1 | 50100 | 15800 | 1580 | 794 | 31600 | 501 | 31600 | 15800 | 79.4 | 12600 | 1000 | 2000
CC(=O)Nc1ccc(CN2CCC(N3CC(c4ccccc4)(c4ccccc4)OCC3=O)CC2)cc1 | 79400 | 25100 | 12600 | 316 | 501 | 20000 | > 50100 | 39800 | > 100000 | 20000 | 398 | 31600
CCc1ccccc1[C@@H](C)NC(=O)c1cnc2c(cnn2CC)c1NC1CCN(C(N)=O)CC1 | > 100000 | > 50100 | 25100 | 251 | > 50100 | 39800 | > 50100 | > 50100 | 79400 | > 50100 | 501 | > 50100
